Measured values taken from patent US12552812B2, “Pyridone multiple-membered ring derivatives and use thereof” (priority 2021, dated 2026).

Key:
[1] = tested on: Baloxavir-resistant A/PR/8/34 (H1N1) I38T influenza virus strain; assay type: cell-based
[2] = tested on: Baloxavir-resistant A/PR/8/34 (H1N1) I38T virus strain; design: species or system BALB/c mice; details: mouse, in vivo

Row | SMILES | EC50 [1] [nM] | Survival rate (%) [2] [%] | body weight of the mice [2]
1 | O=C1c2c(O)c(=O)ccn2N([C@H]2c3ccc(F)c(F)c3C[Se]c3cccnc32)[C@@H]2COCCN12 [Compound 3] | 57.5 |  | 
2 | COC(=O)OCOc1c2n(ccc1=O)N([C@H]1c3ccc(F)c(F)c3C[Se]c3cccnc31)[C@@H]1COCCN1C2=O [Compound 4] |  | 100 | hardly decreased
